Results published in patent publication US5068465A, “Pharmaceutically active 3-aryl-2-fluoro-1-olefins” (Merrell Dow Pharmaceuticals Inc., priority 1990, dated 1991).

Columns and labels:
[1] = tested on: dopamine beta-hydroxylase (DBH); assay: time-dependent DBH inhibitory activity (tyramine conversion followed by oxygen uptake, polarographic electrode); assay type: biochemical; settings: Concentration 12.9 mM; pH about 5; about 37° C.; ascorbate; tyramine substrate; 0.989 correlation
Protocol: The compounds of this invention are useful as dopamine beta-hydroxylase inhibitors for the treatment of, for instance, hypertension. The dopamine beta-hydroxylase (DBH) inhibitory properties of the compounds of this invention can readily be determined by standard and well known procedures. […] The test compound is added at the desired concentration, and the system is incubated. At different time intervals, tyramine, a substrate of DBH, is introduced to aliquots of the incubated enzyme solution and DBH activity is measured by the method of S. May, et al, J. Biol. Chem. 256, 2258 (1981), where the enzyme-activated conversion of tyramine is followed by monitoring oxygen uptake by means of a polarographic electrode and an oxygen monitor, to determine the level of DBH activity.

DBH = settings: J. Biol. Chem., 259, No. 11, 6925 (1984); cited from earlier work
monoamine oxidase = settings: J. Med. Chem., 27, 9 (1984); cited from earlier work

SMILES	mechanism-based inhibitors of DBH (DBH)	further results
C=C(F)Cc1ccc(O)cc1 [3-(4-Hydroxyphenyl)-2-Fluoro-1-Propene]	–	t 1/2: time required to reach 50% log activity [1]: 5 min.
C=C(Cl)Cc1ccc(O)cc1 [2-chloro-3-(4-hydroxyphenyl)-1-propene]	mechanism-based inhibitors of DBH	–
C=C(Br)Cc1ccc(O)cc1 [2-bromo-3-(4-hydroxyphenyl)-1-propene]	mechanism-based inhibitors of DBH	–
COc1ccc(C(=CF)CN)cc1OC [2-(3,4-dimethoxyphenyl)-3-fluoroallylamine]	–	active as a monoamine oxidase inhibitor (monoamine oxidase): active as a monoamine oxidase inhibitor
